Data from patent publication EP0943615A1, “1,4-DIHYDROPYRIDINE DERIVATIVES” (Nikken Chemicals Company, Limited, priority 1996, dated 1998).
Several values for one entry are separate records, joined by “and”; a condition that tells them apart may be missing. Identical values can stand only once. Like-named read-outs stand apart in the source and are kept apart here.

Experiments:
[1] = test system: VCR resistant murine leukemia (P388/VCR) cells; test: In vivo test: overcoming resistance to vincristine in VCR resistant murine leukemia cell bearing mice; design: species or system CDF1 male mice; details: P388/VCR bearing CDF1 mice, VCR 100 µg/kg alone or with compound 100 mg/kg, intraperitoneally for 5 days; for Effect of overcoming resistance T/V (%): T/C of combination over T/C of VCR alone x 100; for Rate of prolongation of life T/C (%): with respect to controls
Method: 10^6 VCR resistant murine leukemia (P388/VCR) cells were transplanted intraperitoneally into groups of six CDF1 male mice, then the compound of the present invention (100 mg/kg) and VCR (100 µg/kg) were administered intraperitoneally for 5 days. […] Effect of overcoming resistance to anti-cancer drug (T/V) % = [(Rate of prolongation of life using VCR and present compound (T/C))/(Rate of prolongation of life using VCR alone (T/C))] x 100 [formula]

VJ-300 cells [2] = test: In vitro test of action suppressing proliferation of cancer cells, combined administration of doxorubicin (colony formation), resistant cells; assay type: cell-based, Human; details: ADM alone or ADM + test compound 1 µg/ml, LD50 of ADM relative to ADM alone in KB cells = 1, 7 days incubation, colony count
Method: Human rhinopharynx cancer derived KB cells (i.e., sensitive cells) and their multi-drug resistant clone VJ-300 cells (i.e., resistant cells) were used as the test cells. As the incubation solutions, use was made of 10% fetal calf serum (Flow Laboratories) and Eagle MEM medium (Nissui Seiyaku) containing 0.292 mg/ml of L-glutamine (Flow Laboratories). The tests of the action for overcoming resistance to anti-cancer drugs or action for increasing the effect of the anti-cancer drug with the combined administration of the anti-cancer drug doxorubicin (i.e., adriamycin, ADM) and the test compound were performed as follows:
The test cells were suspended in incubation solutions and adjusted to a cell density of about 200 cells/ml. The cell suspensions were injected in 2 ml amounts into petri dishes and were incubated in a CO2 gas incubator (5% CO2, 95% air) at 37°C for 24 hours. Then, 5 µl of a predetermined concentration of the aqueous ADM solution and a predetermined concentration of a DMSO solution of the test compound were added, then the incubation was continued for a further 7 days. After the end of the incubation, the result was immobilized with methanol, Giemsa stained and measured for the number of colonies per dish. The results were used to prepare a volume-reaction curve. […] The results are shown in Table 8 to Table 10 using the concentration of LD50 of ADM in the ADM alone group by KB cells as the resistance degree 1 and calculating the resistances of the following LD50 concentrations as relative ratios. […]

VJ-300 cells [3] = test: In vitro test of action suppressing proliferation of cancer cells, combined administration of vincristine, resistant cells; assay type: cell-based, Human; details: VCR alone or VCR + test compound 1 µg/ml, LD50 of VCR relative to VCR alone in KB cells = 1
Method: As the incubation solutions, use was made of 10% fetal calf serum (Flow Laboratories) and Eagle MEM medium (Nissui Seiyaku) containing 0.292 mg/ml of L-glutamine (Flow Laboratories). The tests of the action for overcoming resistance to anti-cancer drugs or action for increasing the effect of the anti-cancer drug with the combined administration of the anti-cancer drug doxorubicin (i.e., adriamycin, ADM) and the test compound were performed as follows:
The test cells were suspended in incubation solutions and adjusted to a cell density of about 200 cells/ml. The cell suspensions were injected in 2 ml amounts into petri dishes and were incubated in a CO2 gas incubator (5% CO2, 95% air) at 37°C for 24 hours. Then, 5 µl of a predetermined concentration of the aqueous ADM solution and a predetermined concentration of a DMSO solution of the test compound were added, then the incubation was continued for a further 7 days. After the end of the incubation, the result was immobilized with methanol, Giemsa stained and measured for the number of colonies per dish. The results were used to prepare a volume-reaction curve. […] The results are shown in Table 8 to Table 10 using the concentration of LD50 of ADM in the ADM alone group by KB cells as the resistance degree 1 and calculating the resistances of the following LD50 concentrations as relative ratios.
The same method as in Test Example 1 was used to test the action of vincristine (VCR) on anti-cancer drugs, prepare a volume-reaction curve, and calculate the resistances.

Acute toxicity test = details: mouse, in vivo, ip; ddY male mice, intraperitoneally, suspended in 0.5% CMC-Na with 0.1% Tween 80, observed up until 7 days
Method: • Animals used: ddY male mice (SLC Japan), 4-5 weeks old, three to five mice per group. • Test method: The compound of the present invention was suspended in 0.5% sodium carboxymethylcellulose (CMC-Na) containing 0.1% Tween 80. It was administered to the mice intraperitoneally in amounts from 1000 mg/kg to 250 mg/kg in groups of three to five mice until no more deaths were observed. The survival of the animals was observed up until 7 days after administration.

[4] = test system: thoracic aorta of the rat; test: Action easing KCl contraction in rat arteries (aortic ring, Magnus tube); details: read-out: IC50 value (x 10^-6 M)
[5] = 50% inhibitory concentration of hyperpotassium contraction, 50mM potassium chloride, rat thoracic aorta ring, cumulative addition

CCCCCC1C(C(=O)OCCCc2cccnc2)=C(C)NC(c2ccc(-n3c(C)nc4ncccc43)cc2)=C1C(=O)OCC (stereo not drawn) [Compound 3, 6-methyl-2-[4-(2-methylimidazo[4,5-b]pyridin-1-yl)phenyl]-4-pentyl-1,4-dihydropyridin-3,5-dicarboxylate 3-ethylester, 5-[3-(3-pyridyl)propyl]ester]
Average days of survival [1]: 15.0
Effect of overcoming resistance T/V (%) [1]: 133%
Rate of prolongation of life T/C (%) [1]: 127%
Degree of resistance for ADM VJ-300 (VJ-300 cells [2]): 1.2
Degree of resistance for VCR VJ-300 (VJ-300 cells [3]): 7.1

CCOC(=O)C1=C(c2ccc(-n3c(C)nc4cnccc43)cc2)NC(C)=C(C(=O)OC/C=C/c2cccnc2)C1CCc1ccccc1 (stereo not drawn) [Compound 24, 6-methyl-2-[4-(2-methylimidazo[4,5-c]pyridin-1-yl)phenyl]-4-(2-phenyl)ethyl-1,4-dihydropyridin-3,5-dicarboxylate 3-ethylester, 5-[(E)-3-(3-pyridyl)-2-propenyl]ester]
Average days of survival [1]: 13.3
Effect of overcoming resistance T/V (%) [1]: 136%
Rate of prolongation of life T/C (%) [1]: 140%
Degree of resistance for ADM VJ-300 (VJ-300 cells [2]): 1.1
LD50 at 168 h (Acute toxicity test): > 1000 mg/kg

CCOC(=O)C1=C(c2ccc(-n3ccnc3)cc2)NC(C)=C(C(=O)OC/C=C/c2cccnc2)C1/C=C/c1ccccc1 (stereo not drawn) [Compound 33, 2-[4-(1-imidazolyl)phenyl]-6-methyl-4-[(E)-2-phenylethenyl]-1,4-dihydropyridin-3,5-dicarboxylate 3-ethylester, 5-[(E)-3-(3-pyridyl)-2-propenyl)ester]
Degree of resistance for ADM VJ-300 (VJ-300 cells [2]): 1.4
LD50 at 168 h (Acute toxicity test): > 1000 mg/kg

CC[C@]1(O)C[C@H]2CN(CCc3c([nH]c4ccccc34)[C@@](C(=O)OC)(c3cc4c(cc3OC)N(C=O)[C@H]3[C@@](O)(C(=O)OC)[C@H](OC(C)=O)[C@]5(CC)C=CCN6CC[C@]43[C@@H]65)C2)C1 [VCR, vincristine, reference compound]
Average days of survival ([1]; 100 mg/kg): 11.3 and 9.8 and 12.3
Effect of overcoming resistance T/V (%) [1]: 100%
Rate of prolongation of life T/C (%) ([1]; 100 mg/kg): 96% and 103% and 109%
Degree of resistance for VCR VJ-300 (VJ-300 cells [3]): 483 - 952

CCOC(=O)C1=C(c2ccc(-n3c(C)nc4cnccc43)cc2)NC(C)=C(C(=O)OCCCc2cccnc2)C1C(C)C (stereo not drawn) [Compound 2, 4-isopronyl-6-methyl-2-[4-(2-methylimidazo[4,5-c]pyridin-1-yl)phenyl]-1,4-dihydronyridin-3,5-dicarboxylate 3-ethylester, 5-[3-(3-pyridyl)propyl]ester]
Degree of resistance for ADM VJ-300 (VJ-300 cells [2]): 2.7
IC50 [4, 5]: > 30000 nM
LD50 at 168 h (Acute toxicity test): > 1000 mg/kg
Degree of resistance for VCR VJ-300 (VJ-300 cells [3]): 9.6

CCOC(=O)C1=C(c2ccc(-n3c(C)nc4ncccc43)cc2)NC(C)=C(C(=O)OCCCc2cccnc2)C1C(C)C (stereo not drawn) [Compound 1, 4-isopropyl-6-methyl-2-[4-(2-methylimidazo[4,5-b]pyridin-1-yl)phenyl]-1,4-dihydropyridin-3,5-dicarboxylate 3-ethylester, 5-[3-(3-pyridyl)propyl]ester]
Average days of survival [1]: 12.8
Effect of overcoming resistance T/V (%) [1]: 113%
Rate of prolongation of life T/C (%) [1]: 108%
Degree of resistance for ADM VJ-300 (VJ-300 cells [2]): 2.4
LD50 at 168 h (Acute toxicity test): > 1000 mg/kg

COc1ccc(CCN(C)CCCC(C#N)(c2ccc(OC)c(OC)c2)C(C)C)cc1OC (stereo not drawn) [Verapamil]
IC50 ([4]; Rattus norvegicus): 1430 nM

CCCCCC1C(C(=O)OCCCc2cccnc2)=C(C)NC(c2ccccc2)=C1C(=O)OCC (stereo not drawn) [Compound 15, 6-methyl-4-pentyl-2-phenyl-1,4-dihydropyridin-3,5-dicarboxylate 3-ethylester, 5-[3-(3-pyridyl)propyl]ester]
Average days of survival [1]: 15.7
Effect of overcoming resistance T/V (%) [1]: 128%
Rate of prolongation of life T/C (%) [1]: 139%
Degree of resistance for ADM VJ-300 (VJ-300 cells [2]): 3.2
Degree of resistance for VCR VJ-300 (VJ-300 cells [3]): 6.5

CCCCCC1C(C(=O)OCCCc2cccnc2)=C(C)NC(c2cccnc2)=C1C(=O)OCC (stereo not drawn) [Compound 16, 6-methyl-4-pentyl-2-(3-pyridyl)-1,4-dihydropyridin-3,5-dicarboxylate 3-ethylester, 5-[3-(3-pyridyl)propyl]ester]
Average days of survival [1]: 16.2
Effect of overcoming resistance T/V (%) [1]: 143%
Rate of prolongation of life T/C (%) [1]: 137%
Degree of resistance for ADM VJ-300 (VJ-300 cells [2]): 3.0
LD50 at 168 h (Acute toxicity test): > 1000 mg/kg

CCCCCC1C(C(=O)OC/C=C/c2cccnc2)=C(C)NC(c2ccc(-n3c(C)nc4cnccc43)cc2)=C1C(=O)OCC (stereo not drawn) [Compound 23, 6-methyl-2-[4-(2-methylimidazo[4,5-c]pyridin-1-yl)phenyl]-4-pentyl-1,4-dihydropyridin-3,5-dicarboxylate 3-ethylester, 5-[(E)-3-(3-pyridyl)-2-propenyl]ester]
Average days of survival [1]: 13.5
Effect of overcoming resistance T/V (%) [1]: 138%
Rate of prolongation of life T/C (%) [1]: 142%
Degree of resistance for ADM VJ-300 (VJ-300 cells [2]): 1.2
LD50 at 168 h (Acute toxicity test): > 1000 mg/kg

COC(=O)C1=C(C)NC(C)=C(C(=O)OCCN(C)Cc2ccccc2)C1c1cccc([N+](=O)[O-])c1 (stereo not drawn) [Nicardipine]
IC50 [4, 5]: 260 nM
